Among the test systems are LOX IMVI; M14; U-251; UO-31; SK-MEL-2; UACC-62; HCC 2998; RXF 393; OVCAR-4; TK-10; SNB-75; KM12; A549; MDA-MB-435; SNB-19; SF-539; NCI-H226; SK-OV-3; 786-0.
Holding throughout (experiment): NCI-60 cell line screen, 48 h

This is an account of results in ChEMBL document CHEMBL1201862, “PubChem BioAssay data set” (2004).

Molecules are shown by their SMILES.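 Test compounds were applied to cells in 96-well plates for 48 hours at 5 doses. GI50: concentration for 50% inhibition of growth.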 Active and inactive are the calls of the source. Rule as the data show it: active = GI50 up to about 1.1 µM and inactive = higher. Some results are limits rather than exact numbers.

Turning to `Oc1ccccc1/C=N/N1C(=S)N(c2ccccc2)C(=N\c2ccccc2)/C1=N/c1ccccc1`, the GI50 in the experiment with LOX IMVI is 13.7 µM (inactive); in the experiment on M14, 15.1 µM (inactive); in the experiment with U-251, 2.79 µM (inactive); in the experiment on UO-31, 14 µM (inactive); in the experiment with SK-MEL-2, 17.7 µM (inactive); in the experiment on UACC-62, 13.9 µM (inactive). The GI50 with HCC 2998 was 23.1 µM (inactive); with RXF 393, 5.41 µM (inactive); with OVCAR-4, 1.27 µM (inactive); in the experiment with TK-10, 8.28 µM (inactive); with SNB-75, 3.21 µM (inactive); in the experiment on KM12 it was 46.3 µM (inactive). In addition, the GI50 with A549 was 13.9 µM (inactive); with MDA-MB-435 it was 22.3 µM (inactive); with SNB-19, 6.47 µM (inactive); in the experiment with SF-539 it was 4.81 µM (inactive); with NCI-H226, 11.6 µM (inactive); in the experiment with SK-OV-3, 13.9 µM (inactive). Besides, the GI50 in the experiment with 786-0 is 2.72 µM (inactive).
As to `CC1C(c2ccc3c(c2)OCO3)c2cc3c(cc2OC1N1CCCCC1)OCO3` (centres undefined), the GI50 in the experiment on LOX IMVI is 82.2 µM (inactive); in the experiment with M14, 40.2 µM (inactive); in the experiment with UO-31, 77.1 µM (inactive); with SK-MEL-2 it was 33.6 µM (inactive); in the experiment on UACC-62, 88.9 µM (inactive); in the experiment on HCC 2998, 20 µM (inactive). In addition, the GI50 with TK-10 was > 100 µM (inactive); in the experiment with KM12, 41.9 µM (inactive); in the experiment on A549 it was > 100 µM (inactive); with MDA-MB-435, 25.2 µM (inactive); in the experiment on SNB-19, 48.9 µM (inactive); in the experiment with SF-539 it was 50.8 µM (inactive). Further, the GI50 in the experiment with 786-0 was 61.5 µM (inactive).
Consider `CN(C)CCCN1c2ccc([N+](=O)[O-])cc2CCc2cccc([N+](=O)[O-])c21`, for which the GI50 in the experiment on LOX IMVI is 16.5 µM (inactive); with M14, 13.7 µM (inactive); in the experiment on U-251 it was 15.3 µM (inactive); in the experiment with SK-MEL-2 it was 18.7 µM (inactive); in the experiment on UACC-62, 3.37 µM (inactive); in the experiment on HCC 2998 it was 13.5 µM (inactive). For the same molecule, the GI50 is 10.5 µM (inactive) with RXF 393; 0.57 µM (active) in the experiment on OVCAR-4; 11.1 µM (inactive) in the experiment on TK-10; 13.2 µM (inactive) in the experiment on SNB-75; 15.6 µM (inactive) in the experiment with KM12; 16 µM (inactive) with A549. Moreover, the GI50 is 14.6 µM (inactive) in the experiment on MDA-MB-435; 17.5 µM (inactive) with SNB-19; 15.2 µM (inactive) in the experiment on SF-539; 13.3 µM (inactive) with NCI-H226; 14.8 µM (inactive) in the experiment on SK-OV-3; 13.6 µM (inactive) in the experiment with 786-0.
For `CCOC(=O)c1c(N=P(c2ccccc2)(c2ccccc2)c2ccccc2)nnc(-c2ccccc2)c1-c1ccccc1`, the GI50 was > 100 µM (inactive) in the experiment on LOX IMVI; > 100 µM (inactive) in the experiment with M14; > 100 µM (inactive) in the experiment with U-251; 1.66 µM (inactive) with UO-31; 43.8 µM (inactive) in the experiment on SK-MEL-2; > 100 µM (inactive) in the experiment on UACC-62. Also, the GI50 is > 100 µM (inactive) in the experiment with HCC 2998; 61.1 µM (inactive) in the experiment on RXF 393; > 100 µM (inactive) with OVCAR-4; > 100 µM (inactive) in the experiment with TK-10; 6.68 µM (inactive) with SNB-75; > 100 µM (inactive) with KM12. For the same molecule, the GI50 in the experiment on A549 is > 100 µM (inactive); with MDA-MB-435 it was > 100 µM (inactive); in the experiment on SNB-19, 71.3 µM (inactive); with SF-539, > 100 µM (inactive); in the experiment with NCI-H226, > 100 µM (inactive); in the experiment with SK-OV-3, > 100 µM (inactive). For the same molecule, in the experiment with 786-0, the GI50 is > 100 µM (inactive).
`Cc1ccccc1NC(=O)Cc1nc2ccccc2s1`: the GI50 is 16.7 µM (inactive) with LOX IMVI; 12.6 µM (inactive) in the experiment on M14; 11.8 µM (inactive) with U-251; 11.5 µM (inactive) in the experiment with UO-31; 16 µM (inactive) in the experiment on SK-MEL-2; 19.4 µM (inactive) in the experiment on UACC-62. The GI50 is 34 µM (inactive) in the experiment with HCC 2998; 18.9 µM (inactive) in the experiment with RXF 393; 17.3 µM (inactive) in the experiment with OVCAR-4; 23.8 µM (inactive) in the experiment on TK-10; 61 µM (inactive) with SNB-75; 16.7 µM (inactive) in the experiment with KM12. For the same molecule, the GI50 is 16.6 µM (inactive) in the experiment on A549; 29.7 µM (inactive) with SNB-19; 18.9 µM (inactive) in the experiment on SF-539; 18.9 µM (inactive) in the experiment with NCI-H226; 24.4 µM (inactive) in the experiment on SK-OV-3; 17.7 µM (inactive) in the experiment on 786-0.
`N[C@H]1CCN(c2c(F)cc3c(=O)c(C(=O)O)cn4c3c2Oc2c-4ccc3c2ccc2ccccc23)C1`: the GI50 is 0.56 µM (active) in the experiment with LOX IMVI; 2.15 µM (inactive) in the experiment with M14; 0.121 µM (active) in the experiment with U-251; 1.64 µM (inactive) in the experiment with UO-31; 9.77 µM (inactive) in the experiment on SK-MEL-2; 5.68 µM (inactive) with UACC-62. Further, the GI50 with RXF 393 is 0.255 µM (active); in the experiment with OVCAR-4, 0.535 µM (active); in the experiment with TK-10, 0.408 µM (active); with KM12 it was 1 µM (active); in the experiment on A549, 1.12 µM (inactive); with MDA-MB-435, 1.05 µM (active). Further, the GI50 is 1.33 µM (inactive) in the experiment on SNB-19, 1.25 µM (inactive) in the experiment with SF-539, 4.02 µM (inactive) with NCI-H226 and 0.128 µM (active) in the experiment on 786-0.
On to `O=C(/C=C1/NC(=O)CS1)Nc1ccccc1`, for which the GI50 with LOX IMVI is > 10 µM (inactive); in the experiment with M14, > 100 µM (inactive); with U-251, > 100 µM (inactive); with UO-31, > 100 µM (inactive); with SK-MEL-2, 89.5 µM (inactive); in the experiment on UACC-62 it was > 100 µM (inactive). Moreover, the GI50 in the experiment with HCC 2998 is > 100 µM (inactive); with RXF 393, > 100 µM (inactive); in the experiment on OVCAR-4, > 100 µM (inactive); with TK-10, > 100 µM (inactive); in the experiment with SNB-75 it was 50 µM (inactive); in the experiment on KM12 it was > 100 µM (inactive). Besides, the GI50 in the experiment on A549, in the experiment on SNB-19, in the experiment on SF-539, with NCI-H226, with SK-OV-3 and in the experiment with 786-0 was > 100 µM (inactive) throughout.
With `COC(=O)/C(=N\NC(N)=O)C(C(=O)C=C(C)C)C(=O)C(=O)Nc1ccc(Cl)c(Cl)c1` (centres undefined), the GI50 in the experiment on LOX IMVI, in the experiment on M14, in the experiment with U-251, in the experiment on UO-31, in the experiment on SK-MEL-2 and in the experiment with UACC-62 was > 100 µM (inactive) in each case. Moreover, the GI50 in the experiment with HCC 2998, in the experiment with RXF 393, in the experiment with OVCAR-4, with TK-10, in the experiment with SNB-75 and with KM12 was > 100 µM (inactive) each time. The GI50 in the experiment with A549, in the experiment with SNB-19, in the experiment on SF-539, in the experiment on NCI-H226, in the experiment on SK-OV-3 and in the experiment with 786-0 was > 100 µM (inactive) in each case.
